Results: paper PMC8160793, “Potent Antimicrobial and Antibiofilm Activities of Feleucin-K3 Analogs Modified by α-(4-Pentenyl)-Ala against Multidrug-Resistant Bacteria” (Biomolecules, 2021)
Ends that are not written are not given here.

What was measured:
A. baumannii = test: Resistance development assay, sequential passaging; assay type: cell-based, Acinetobacter baumannii; details: serial passage at sub-MIC, 20 passages
Procedure: (§1) Serial passage and MIC determination were used to explore whether the bacteria developed drug resistance. On the first day, the MICs of the peptides were determined as described above. The next day, the bacterial suspension of sub-MIC concentration was cultivated to the mid-log phase. The MICs of the peptides were detected again, and this process was repeated for 20 days. The MICs of the antibiotics, including amoxicillin (AML), ceftazidime (CAZ) and imipenem, were also determined as controls.

[1] = test system: multidrug-resistant A. baumannii; design: method as in PMID 32590058; details: previous studies; cited from earlier work
S. aureus = test: Resistance development assay, sequential passaging; assay type: cell-based, Staphylococcus aureus; details: serial passage at sub-MIC
Procedure: as §1

MRSA = test system: MRSA; design: method as in PMID 32590058; details: cited from earlier work
MRSA 113 = assay type: cell-based, Staphylococcus aureus; details: 113, 18 h
Procedure: (§2) The minimum inhibitory concentration (MIC) of the Feleucin-K3 analogs was tested by the broth microdilution method. Sensitive bacteria and drug-resistant bacteria were diluted to 1 × 10^6 CFU/mL, according to the McFarland standards. Bacterial suspension and peptide solutions (8–128 μg/mL) were incubated at 37 °C for 18 h. The minimum concentration without obvious bacterial growth was the MIC of the peptides. The stability of the analogs in a physiological salt environment was also investigated. In brief, salt powder (450-mM NaCl) was dissolved in deionized water, and the following investigational steps were the same as those described before. The above steps were repeated several times, until the same value was obtained three times.

MRSA 23 = assay type: cell-based, Staphylococcus aureus; details: 23, 18 h
Procedure: as §2

MRSA 48 = assay type: cell-based, Staphylococcus aureus; details: 48, 18 h
Procedure: as §2

MRSA 51 = assay type: cell-based, Staphylococcus aureus; details: 51, 18 h
Procedure: as §2

MRSA 52 = assay type: cell-based, Staphylococcus aureus; details: 52, 18 h
Procedure: as §2

MRSA 54 = assay type: cell-based, Staphylococcus aureus; details: 54, 18 h
Procedure: as §2

MRSA 71 = assay type: cell-based, Staphylococcus aureus; details: 71, 18 h
Procedure: as §2

MRSA 74 = assay type: cell-based, Staphylococcus aureus; details: 74, 18 h
Procedure: as §2

MRSA 75 = assay type: cell-based, Staphylococcus aureus; details: 75, 18 h
Procedure: as §2

MRSA 936 = assay type: cell-based, Staphylococcus aureus; details: 936, 18 h
Procedure: as §2

MRSA ATCC 33591 = assay type: cell-based, Staphylococcus aureus; details: ATCC 33591, 18 h
Procedure: as §2

S. aureus 725 = assay type: cell-based, Staphylococcus aureus; details: 725, 18 h
Procedure: as §2

S. aureus 794 = assay type: cell-based, Staphylococcus aureus; details: 794, 18 h
Procedure: as §2

A. baumannii 51243 = assay type: cell-based, Acinetobacter baumannii; details: 51243, 18 h
Procedure: as §2

A. baumannii 5444 = assay type: cell-based, Acinetobacter baumannii; details: 5444, 18 h
Procedure: as §2

A. baumannii 822144 = assay type: cell-based, Acinetobacter baumannii; details: 822144, 18 h
Procedure: as §2

A. baumannii 8309 = assay type: cell-based, Acinetobacter baumannii; details: 8309, 18 h
Procedure: as §2

A. baumannii 91105 = assay type: cell-based, Acinetobacter baumannii; details: 91105, 18 h
Procedure: as §2

A. baumannii 91152 = assay type: cell-based, Acinetobacter baumannii; details: 91152, 18 h
Procedure: as §2

A. baumannii 91199 = assay type: cell-based, Acinetobacter baumannii; details: 91199, 18 h
Procedure: as §2

A. baumannii 91810 = assay type: cell-based, Acinetobacter baumannii; details: 91810, 18 h
Procedure: as §2

A. baumannii 91869 = assay type: cell-based, Acinetobacter baumannii; details: 91869, 18 h
Procedure: as §2

A. baumannii 91944 = assay type: cell-based, Acinetobacter baumannii; details: 91944, 18 h
Procedure: as §2

A. baumannii 9234 = assay type: cell-based, Acinetobacter baumannii; details: 9234, 18 h
Procedure: as §2

A. baumannii 92359 = assay type: cell-based, Acinetobacter baumannii; details: 92359, 18 h
Procedure: as §2

A. baumannii 9236 = assay type: cell-based, Acinetobacter baumannii; details: 9236, 18 h
Procedure: as §2

A. baumannii 9331 = assay type: cell-based, Acinetobacter baumannii; details: 9331, 18 h
Procedure: as §2

A. baumannii 9336 = assay type: cell-based, Acinetobacter baumannii; details: 9336, 18 h
Procedure: as §2

A. baumannii 97830 = assay type: cell-based, Acinetobacter baumannii; details: 97830, 18 h
Procedure: as §2

A. baumannii 98110 = assay type: cell-based, Acinetobacter baumannii; details: 98110, 18 h
Procedure: as §2

A. baumannii 9828 = assay type: cell-based, Acinetobacter baumannii; details: 9828, 18 h
Procedure: as §2

A. baumannii 9840 = assay type: cell-based, Acinetobacter baumannii; details: 9840, 18 h
Procedure: as §2

A. baumannii 9896 = assay type: cell-based, Acinetobacter baumannii; details: 9896, 18 h
Procedure: as §2

mouse RBCs = details: cited from earlier work
Source text: The hemolysis rates of K70 were less than 1%, even at the maximum c ...

C[C@@H](O)[C@H]1C(=O)N2C(C(=O)O)=C(SCCN=CN)C[C@H]12 [imipenem]
≤ 16 fold: maximum fold increase of MIC, A. baumannii (A. baumannii)
≤ 64 µg/mL: MIC against multidrug-resistant A. baumannii [1]

CC1(C)S[C@@H]2[C@H](NC(=O)[C@H](N)c3ccc(O)cc3)C(=O)N2[C@H]1C(=O)O [AML, amoxicillin]
up to 128 µg/mL: MIC against MRSA (MRSA)
≤ 1024 fold: maximum fold increase of MIC, S. aureus (S. aureus; 20 passages)
5 passage: passage at which resistant mutants were produced (S. aureus; strain taken as S. aureus)

FLKLLKKLL-NH2 [Feleucin-K3]
more than 40%: hemolytic rate at 256 µg/mL (mouse RBCs)
16 µg/mL: MIC, S. aureus 794 (S. aureus 794) | MIC, A. baumannii 9236 (A. baumannii 9236) | MIC, A. baumannii 9331 (A. baumannii 9331) | MIC, A. baumannii 9828 (A. baumannii 9828)
8 µg/mL: MIC, MRSA 113 (MRSA 113) | MIC, MRSA 23 (MRSA 23) | MIC, MRSA 48 (MRSA 48) | MIC, MRSA 51 (MRSA 51) | MIC, MRSA 52 (MRSA 52) | MIC, MRSA 54 (MRSA 54) | MIC, MRSA 71 (MRSA 71) | MIC, MRSA 74 (MRSA 74) | MIC, MRSA 75 (MRSA 75) | MIC, MRSA 936 (MRSA 936) | MIC, MRSA ATCC 33591 (MRSA ATCC 33591) | MIC, S. aureus 725 (S. aureus 725) | MIC, A. baumannii 51243 (A. baumannii 51243) | MIC, A. baumannii 5444 (A. baumannii 5444) | MIC, A. baumannii 822144 (A. baumannii 822144) | MIC, A. baumannii 8309 (A. baumannii 8309) | MIC, A. baumannii 91105 (A. baumannii 91105) | MIC, A. baumannii 91152 (A. baumannii 91152) | MIC, A. baumannii 91199 (A. baumannii 91199) | MIC, A. baumannii 91810 (A. baumannii 91810) | MIC, A. baumannii 91869 (A. baumannii 91869) | MIC, A. baumannii 91944 (A. baumannii 91944) | MIC, A. baumannii 9234 (A. baumannii 9234) | MIC, A. baumannii 92359 (A. baumannii 92359) | MIC, A. baumannii 9336 (A. baumannii 9336) | MIC, A. baumannii 97830 (A. baumannii 97830) | MIC, A. baumannii 98110 (A. baumannii 98110) | MIC, A. baumannii 9840 (A. baumannii 9840) | MIC, A. baumannii 9896 (A. baumannii 9896)
